Laboratory results from patent US10221163B2 (priority 2015, dated 2019).
Read-outs that look alike come from different tables or passages of the source.

Legend:
IMP-1 = IMP-1 (Serratia marcescens, UniProt P52699); experiment: biochemical; assay type: biochemical; settings: fluorescence assay, CCF2-FA substrate, 2 pM enzyme, 2 hours at 25° C.; read-out: IMP-1 IC50
Procedure, shortened: (§1)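 Test compound, enzyme and the FRET cephalosporin substrate CCF2-FA are incubated together for 2 hours at 25° C. Cleavage is followed by fluorescence, and IC50 values are derived from semi-logarithmic inhibition curves fitted with a 4-parameter model.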

NDM-1 = NDM-1 (Klebsiella pneumoniae, UniProt C7C422); experiment: biochemical; assay type: biochemical; settings: fluorescence assay, CCF2-FA substrate, 1 pM enzyme, 2 hours at 25° C.; read-out: NDM-1 IC50
Procedure, shortened: as §1

[1] = tested on: Pseudomonas aeruginosa efflux+ (MB9798), IMP-1; assay type: cell-based; settings: concentration restoring susceptibility to imipenem at 2 μg/mL in the presence of a class A, C, D serine β-lactamase inhibitor closely related to relebactam
Procedure, shortened: (§2)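 PAO1 pair, broth microdilution; fixed β-lactam (imipenem/ceftazidime) at ~CLSI breakpoint + fixed class A/C BLI for AmpC; serial MBLi titration; endpoint = MBLi conc. restoring susceptibility; MB9798:MB9799 ratio = efflux liability.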

[2] = tested on: Pseudomonas aeruginosa efflux− (MB9799), IMP-1; assay type: cell-based; settings: concentration restoring susceptibility to imipenem at 2 μg/mL in the presence of a class A, C, D serine β-lactamase inhibitor closely related to relebactam
Procedure, shortened: as §2

[3] = tested on: Klebsiella pneumoniae expressing VIM-1 (IHMA599644); assay type: cell-based; settings: with imipenem 1 μg/ml; 95% inhibition of bacterial growth
Procedure, shortened: (§3)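 Imipenem 1 μg/ml + inhibitor; MBL-expressing clinical strains in 1.1×CAMHB, inoculum from saline suspension diluted 1:100; 35° C, 22–24 h; absorbance read-out.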

[4] = tested on: Serratia marcescens expressing IMP-1 (CL5741); assay type: cell-based; settings: with imipenem 1 μg/ml; 95% inhibition of bacterial growth
Procedure, shortened: as §3

[5] = tested on: Escherichia coli expressing NDM-1 (CLB30005, CLB30016); assay type: cell-based; settings: with imipenem 1 μg/ml; 95% inhibition of bacterial growth
Procedure, shortened: as §3

VIM-1 = VIM-1 (Pseudomonas aeruginosa (strain ATCC 15692 / DSM 22644 / CIP 104116 / JCM 14847 / LMG 12228 / 1C / PRS 101 / PAO1), UniProt A0A0F7KYQ8); experiment: biochemical; settings: CCF2-FA substrate, 30 pM enzyme, 2 hours at 25° C.
Procedure, shortened: as §1

[6] = tested on: Pseudomonas aeruginosa MB9798 vs MB9799; settings: ratio MITC95 PA_9798/MITC95 PA_9799
Procedure, shortened: as §2

[7] = fluorescence assay, read-out: VIM-1 IC50

Sequence of NDM-1 (C7C422 whole entry, looked up, species assumed): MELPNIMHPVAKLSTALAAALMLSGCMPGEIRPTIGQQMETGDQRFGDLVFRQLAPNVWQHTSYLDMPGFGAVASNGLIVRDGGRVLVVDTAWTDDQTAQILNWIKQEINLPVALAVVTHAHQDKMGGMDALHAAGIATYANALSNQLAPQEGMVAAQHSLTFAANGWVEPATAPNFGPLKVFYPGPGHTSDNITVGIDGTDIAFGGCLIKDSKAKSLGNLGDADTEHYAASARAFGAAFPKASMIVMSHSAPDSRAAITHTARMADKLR
Sequence of IMP-1 (P52699 whole entry, looked up, species assumed): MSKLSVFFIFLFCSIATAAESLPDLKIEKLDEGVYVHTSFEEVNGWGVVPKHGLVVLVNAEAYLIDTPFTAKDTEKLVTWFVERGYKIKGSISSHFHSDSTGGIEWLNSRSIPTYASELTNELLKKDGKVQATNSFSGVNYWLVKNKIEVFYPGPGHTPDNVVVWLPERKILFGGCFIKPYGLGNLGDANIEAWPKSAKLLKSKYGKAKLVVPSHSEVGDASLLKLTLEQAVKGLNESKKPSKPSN

For `CN(C)C1CN(S(=O)(=O)c2ccc(-c3cccc4sc(N)nc34)c(-c3nnn[nH]3)c2S(N)(=O)=O)C1` [Example 39, 3-(2-amino-1,3-benzothiazol-4-yl)-6-{[3-(dimethylamino)azetidin-1-yl]sulfonyl}-2-(1H-tetrazol-5-yl)benzenesulfonamide], the IC50 (IMP-1) was 0.878 nM, the IC50 (NDM-1) was 0.506 nM and the “P. aeruginosa expressing IMP-1, efflux + (MB9798) MITC95” value [1] was 50 µM. For the same compound, the “P. aeruginosa expressing IMP-1, efflux − (MB9799) MITC95” value [2] was 3.125 µM, the “Klebsiella pneumoniae expressing VIM-1 (IHMA599644) MITC95” value [3] was 12.5 µM and the “Serratia marcescens expressing IMP-1 (CL5741) MITC95” value [4] was 6.25 µM. For the same compound, the “Escherichia coli expressing NDM-1 (CLB30016) MITC95” value [5] was 12.5 µM, the IC50 (VIM-1; [7]) was 0.908 nM and the Efflux ratio [6] was 16.00.

`Nc1nc2c(-c3ccc(S(=O)(=O)N4CC5CC4CS5(=O)=O)c(S(N)(=O)=O)c3-c3nnn[nH]3)cccc2s1` (stereo not drawn) [Example 40, 3-(2-amino-1,3-benzothiazol-4-yl)-6-[(2,2-dioxido-2-thia-5-azabicyclo[2.2.1]hept-5-yl)sulfonyl]-2-(1H-tetrazol-5-yl)benzenesulfonamide] was tested, and the IC50 (IMP-1) was 1.86 nM, the IC50 (NDM-1) was 1.7 nM and the “P. aeruginosa expressing IMP-1, efflux + (MB9798) MITC95” value [1] was 50 µM. For the same compound, the “P. aeruginosa expressing IMP-1, efflux − (MB9799) MITC95” value [2] was 3.125 µM, the “Klebsiella pneumoniae expressing VIM-1 (IHMA599644) MITC95” value [3] was 25 µM and the “Serratia marcescens expressing IMP-1 (CL5741) MITC95” value [4] was 6.25 µM. For the same compound, the “Escherichia coli expressing NDM-1 (CLB30016) MITC95” value [5] was 25 µM, the IC50 (VIM-1; VIM-1 IC50, fluorescence assay) was 2.66 nM and the Efflux ratio [6] was 16.00.

In the case of `CN(C1CCS(=O)(=O)C1)S(=O)(=O)c1ccc(-c2cccc3sc(N)nc23)c(-c2nnn[nH]2)c1S(N)(=O)=O` (stereo not drawn) [Example 41, 4-(2-amino-1,3-benzothiazol-4-yl)-N^1-(1,1-dioxidotetrahydrothiophen-3-yl)-N~1~-methyl-3-(1H-tetrazol-5-yl)benzene-1,2-disulfonamide], the IC50 (IMP-1) is reported as 0.81 nM, the IC50 (NDM-1) is reported as 0.938 nM and the “P. aeruginosa expressing IMP-1, efflux + (MB9798) MITC95” value [1] is reported as 25 µM. The “P. aeruginosa expressing IMP-1, efflux − (MB9799) MITC95” value [2] was 3.125 µM, the “Klebsiella pneumoniae expressing VIM-1 (IHMA599644) MITC95” value [3] was 25 µM and the “Serratia marcescens expressing IMP-1 (CL5741) MITC95” value [4] was 6.25 µM. The “Escherichia coli expressing NDM-1 (CLB30016) MITC95” value [5] was 25 µM, the IC50 (VIM-1; [7]) was 1.75 nM and the Efflux ratio [6] was 8.00.

In the case of `Nc1nc2c(-c3ccc(S(=O)(=O)N4CC(F)(F)C4)c(S(N)(=O)=O)c3-c3nnn[nH]3)cccc2s1` [Example 42, 3-(2-amino-1,3-benzothiazol-4-yl)-6-[(3,3-difluoroazetidin-1-yl)sulfonyl]-2-(1H-tetrazol-5-yl)benzenesulfonamide], the IC50 (IMP-1) is reported as 0.7 nM, the IC50 (NDM-1) is reported as 0.697 nM and the “P. aeruginosa expressing IMP-1, efflux + (MB9798) MITC95” value [1] is reported as 25 µM. For the same compound, the “P. aeruginosa expressing IMP-1, efflux − (MB9799) MITC95” value [2] was 1.563 µM, the “Klebsiella pneumoniae expressing VIM-1 (IHMA599644) MITC95” value [3] was 12.5 µM and the “Serratia marcescens expressing IMP-1 (CL5741) MITC95” value [4] was 3.125 µM. The “Escherichia coli expressing NDM-1 (CLB30016) MITC95” value [5] was 12.5 µM, the IC50 (VIM-1; VIM-1 IC50, fluorescence assay) was 0.669 nM and the Efflux ratio [6] was 15.99.

`Nc1nc2c(-c3ccc(S(=O)(=O)N4CCC(F)(F)C4)c(S(N)(=O)=O)c3-c3nnn[nH]3)cccc2s1` [Example 43, 3-(2-amino-1,3-benzothiazol-4-yl)-6-[(3,3-difluoropyrrolidin-1-yl)sulfonyl]-2-(1H-tetrazol-5-yl)benzenesulfonamide] was tested, and the IC50 (IMP-1) was 1.23 nM, the IC50 (NDM-1) was 2.07 nM and the “P. aeruginosa expressing IMP-1, efflux + (MB9798) MITC95” value [1] was 100 µM. For the same compound, the “P. aeruginosa expressing IMP-1, efflux − (MB9799) MITC95” value [2] was 1.563 µM, the “Klebsiella pneumoniae expressing VIM-1 (IHMA599644) MITC95” value [3] was 100 µM and the “Serratia marcescens expressing IMP-1 (CL5741) MITC95” value [4] was 6.25 µM. The “Escherichia coli expressing NDM-1 (CLB30016) MITC95” value [5] was 25 µM, the IC50 (VIM-1; [7]) was 1.86 nM and the Efflux ratio [6] was 63.98.

In the case of `Nc1nc2c(-c3ccc(S(=O)(=O)N4CC[S+]([O-])CC4)c(S(N)(=O)=O)c3-c3nnn[nH]3)cccc2s1` [Example 44, 3-(2-amino-1,3-benzothiazol-4-yl)-6-[(1-oxidothiomorpholin-4-yl)sulfonyl]-2-(1H-tetrazol-5-yl)benzenesulfonamide], the IC50 (IMP-1) is reported as 2.22 nM, the IC50 (NDM-1) is reported as 0.872 nM and the “P. aeruginosa expressing IMP-1, efflux + (MB9798) MITC95” value [1] is reported as 12.5 µM. For the same compound, the “P. aeruginosa expressing IMP-1, efflux − (MB9799) MITC95” value [2] was 6.25 µM, the “Klebsiella pneumoniae expressing VIM-1 (IHMA599644) MITC95” value [3] was 25 µM and the “Serratia marcescens expressing IMP-1 (CL5741) MITC95” value [4] was 6.25 µM. The “Escherichia coli expressing NDM-1 (CLB30016) MITC95” value [5] was 25 µM, the IC50 (VIM-1; [7]) was 2.06 nM and the Efflux ratio [6] was 2.00.

With `Nc1nc2c(-c3ccc(S(=O)(=O)NCC4(F)CNC4)c(S(N)(=O)=O)c3-c3nnn[nH]3)cccc2s1` [Example 46, 4-(2-amino-1,3-benzothiazol-4-yl)-N^1-[(3-fluoroazetidin-3-yl)methyl]-3-(1H-tetrazol-5-yl)benzene-1,2-disulfonamide] the IC50 (IMP-1) was 0.289 nM, the IC50 (NDM-1) was 0.0572 nM and the “P. aeruginosa expressing IMP-1, efflux + (MB9798) MITC95” value [1] was 0.7813 µM. For the same compound, the “P. aeruginosa expressing IMP-1, efflux − (MB9799) MITC95” value [2] was 1.563 µM, the “Klebsiella pneumoniae expressing VIM-1 (IHMA599644) MITC95” value [3] was 3.125 µM and the “Serratia marcescens expressing IMP-1 (CL5741) MITC95” value [4] was 1.563 µM. For the same compound, the “Escherichia coli expressing NDM-1 (CLB30016) MITC95” value [5] was 6.25 µM, the IC50 (VIM-1; [7]) was 0.321 nM and the Efflux ratio [6] was 0.50.

`NCC(F)(F)CNS(=O)(=O)c1ccc(-c2cccc3sc(N)nc23)c(-c2nnn[nH]2)c1S(N)(=O)=O` [Example 47, 4-(2-amino-1,3-benzothiazol-4-yl)-N1-(3-amino-2,2-difluoropropyl)-3-(1H-tetrazol-5-yl)benzene-1,2-disulfonamide] was tested, and the IC50 (IMP-1) was 0.484 nM, the IC50 (NDM-1) was 0.0658 nM and the “P. aeruginosa expressing IMP-1, efflux + (MB9798) MITC95” value [1] was 3.125 µM. The “P. aeruginosa expressing IMP-1, efflux − (MB9799) MITC95” value [2] was 3.125 µM, the “Klebsiella pneumoniae expressing VIM-1 (IHMA599644) MITC95” value [3] was 12.5 µM and the “Serratia marcescens expressing IMP-1 (CL5741) MITC95” value [4] was 3.125 µM. For the same compound, the “Escherichia coli expressing NDM-1 (CLB30016) MITC95” value [5] was 6.25 µM, the IC50 (VIM-1; [7]) was 0.304 nM and the Efflux ratio [6] was 1.00.

For `Nc1nc2c(-c3ccc(S(=O)(=O)N4CC5(CCNC5)C4)c(S(N)(=O)=O)c3-c3nnn[nH]3)cccc2s1` [Example 48, 3-(2-amino-1,3-benzothiazol-4-yl)-6-(2,6-diazaspiro[3.4]oct-2-ylsulfonyl)-2-(1H-tetrazol-5-yl)benzenesulfonamide], the IC50 (IMP-1) was 0.951 nM, the IC50 (NDM-1) was 0.258 nM and the “P. aeruginosa expressing IMP-1, efflux + (MB9798) MITC95” value [1] was 1.563 µM. For the same compound, the “P. aeruginosa expressing IMP-1, efflux − (MB9799) MITC95” value [2] was 1.563 µM, the “Klebsiella pneumoniae expressing VIM-1 (IHMA599644) MITC95” value [3] was 3.125 µM and the “Serratia marcescens expressing IMP-1 (CL5741) MITC95” value [4] was 3.125 µM. For the same compound, the “Escherichia coli expressing NDM-1 (CLB30016) MITC95” value [5] was 6.25 µM, the IC50 (VIM-1; [7]) was 0.49 nM and the Efflux ratio [6] was 1.00.

In the case of `Nc1nc2c(-c3ccc(S(=O)(=O)NCCC(N)C(F)(F)F)c(S(N)(=O)=O)c3-c3nnn[nH]3)cccc2s1` (stereo not drawn) [Example 49, 4-(2-amino-1,3-benzothiazol-4-yl)-N1-(3-amino-4,4,4-trifluorobutyl)-3-(1H-tetrazol-5-yl)benzene-1,2-disulfonamide], the IC50 (IMP-1) is reported as 0.413 nM, the IC50 (NDM-1) is reported as 0.0673 nM and the “P. aeruginosa expressing IMP-1, efflux + (MB9798) MITC95” value [1] is reported as 50 µM. For the same compound, the “P. aeruginosa expressing IMP-1, efflux − (MB9799) MITC95” value [2] was 6.25 µM, the “Klebsiella pneumoniae expressing VIM-1 (IHMA599644) MITC95” value [3] was 25 µM and the “Serratia marcescens expressing IMP-1 (CL5741) MITC95” value [4] was 12.5 µM. For the same compound, the “Escherichia coli expressing NDM-1 (CLB30016) MITC95” value [5] was 25 µM, the IC50 (VIM-1; [7]) was 0.328 nM and the Efflux ratio [6] was 8.00.

`Nc1nc2c(-c3ccc(S(=O)(=O)N[C@H]4CO[C@H]5[C@H]4OC[C@H]5O)c(S(N)(=O)=O)c3-c3nnn[nH]3)cccc2s1` [Example 50, 2-({[4-(2-amino-1,3-benzothiazol-4-yl)-2-sulfamoyl-3-(1H-tetrazol-5-yl)phenyl]sulfonyl}amino)-1,4:3,6-dianhydro-2-deoxy-D-allitol] was tested, and the IC50 (IMP-1) was 0.263 nM, the IC50 (NDM-1) was 0.0408 nM and the “P. aeruginosa expressing IMP-1, efflux + (MB9798) MITC95” value [1] was 12.5 µM. The “P. aeruginosa expressing IMP-1, efflux − (MB9799) MITC95” value [2] was 6.25 µM, the “Klebsiella pneumoniae expressing VIM-1 (IHMA599644) MITC95” value [3] was 25 µM and the “Serratia marcescens expressing IMP-1 (CL5741) MITC95” value [4] was 12.5 µM. The “Escherichia coli expressing NDM-1 (CLB30016) MITC95” value [5] was 25 µM, the IC50 (VIM-1; VIM-1 IC50, fluorescence assay) was 0.25 nM and the Efflux ratio [6] was 2.00.
